The source of these data is US9090652B2, “Bile acid derivatives as FXR ligands for the prevention or treatment of FXR-mediated diseases or conditions” (Intercept Pharmaceuticals, Inc., priority 2006, dated 2015).

Values after ≈ are worked out from the molar mass of the structure shown. “Also recorded” adds a separate entry of the source. Counter-ions that a name gives are not always drawn. Like-named read-outs stand apart in the source and are kept apart here. Marks after values point to notes of the source that are not given here.

For data set [1], the system named is FXR related genes in liver. In words: FXR target gene expression in liver of intact mice (Real-Time PCR). Format: in vivo, Balb/c mice. To be noted: 4 days.
Excerpt: Six- to eight-week old female Balb/c mice were obtained from Charles River (Charles River Laboratories, Inc., Wilmington, Mass.). […] All procedures in this study were approved by the Animal Study Committees of the University of Perugia (Italy) according to governmental guidelines for animal care. […] At the end of the experiment mice were sacrificed and liver was removed to perform Real Time PCR analysis of FXR target genes.
In data set [2] the test system is ANIT-induced cholestasis. In words: ANIT-induced cholestasis in rat. Format: in vivo, Wistar rats. As to conditions: ANIT treated rats, ammonium salt. The protocol: Wistar Rats studies were approved by the Animal Study Committee of the University of Perugia. Male Wistar rats (200-250 g) were obtained from Charles River Breeding Laboratories (Portage, Mich.) and maintained on standard laboratory rat chow on a 12-h light/dark cycle. […] Control rats (N=4) were administered vehicle (physiologic solution I.P.). At the end of the study, rats were sacrificed under anaesthesia with sodium pentobarbital (50 mg/kg i.p.) and terminally bled via cardiac puncture; the liver was removed and weighted for examination and blood samples were taken. Rat genes expression was evaluated by quantitative real-time polymerase chain reaction (RT-PCR) as previously described herein.

In a further data set the target is T1, FXR (Homo sapiens, UniProt Q96RI1).
T1 construct: expressed in transfected cells; host or cells: HepG2
T1 sequence (Q96RI1 1-486): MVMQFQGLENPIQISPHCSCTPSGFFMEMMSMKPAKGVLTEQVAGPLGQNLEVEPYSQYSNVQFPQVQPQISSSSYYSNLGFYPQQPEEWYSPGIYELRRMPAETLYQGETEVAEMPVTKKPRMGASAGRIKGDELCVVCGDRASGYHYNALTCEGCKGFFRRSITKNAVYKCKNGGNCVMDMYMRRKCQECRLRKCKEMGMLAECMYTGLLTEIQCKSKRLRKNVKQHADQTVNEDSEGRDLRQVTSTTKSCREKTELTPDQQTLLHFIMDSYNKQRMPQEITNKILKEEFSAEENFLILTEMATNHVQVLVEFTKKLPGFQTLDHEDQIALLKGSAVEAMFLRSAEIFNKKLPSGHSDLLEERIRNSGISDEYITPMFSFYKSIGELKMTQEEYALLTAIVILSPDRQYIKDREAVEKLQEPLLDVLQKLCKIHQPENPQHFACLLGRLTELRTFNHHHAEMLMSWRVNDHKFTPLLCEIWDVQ
T1 sequence (P19793 1-462 partner): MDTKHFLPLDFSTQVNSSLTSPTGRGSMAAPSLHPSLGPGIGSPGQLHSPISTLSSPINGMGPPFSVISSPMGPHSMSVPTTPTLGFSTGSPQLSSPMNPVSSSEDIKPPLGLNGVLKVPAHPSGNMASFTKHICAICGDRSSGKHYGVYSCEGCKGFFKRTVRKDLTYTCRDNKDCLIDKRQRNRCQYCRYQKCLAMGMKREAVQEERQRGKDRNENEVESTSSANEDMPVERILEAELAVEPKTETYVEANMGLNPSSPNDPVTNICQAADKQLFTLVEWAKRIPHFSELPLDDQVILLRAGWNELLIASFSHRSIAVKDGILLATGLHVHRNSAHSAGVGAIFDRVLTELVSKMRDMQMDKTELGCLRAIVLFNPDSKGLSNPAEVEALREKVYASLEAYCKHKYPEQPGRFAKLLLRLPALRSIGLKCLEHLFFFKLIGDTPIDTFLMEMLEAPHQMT
In words: Luciferase transactivation assay in transfected HepG2 cells. In kind it is cell-based. To be noted: ammonium salt.

Data set [3] in a line: Critical micellar concentration by surface tension (maximum bubble-pressure). In kind it is physicochemical. As to conditions: for CMC NaCl 0.15M: in NaCl 0.15 M; for CMC H2O: in water. The procedure:
This value was determined by surface tension measurements using a maximum bubble-pressure method. The tensiometer was a Sensadyne 6000 (Chem-Dyne Research Corp., Milwaukee, Wis.) equipped with two glass probes of 0.5 and 4.0 mm diameters connected to a source of nitrogen. The bubble frequency was 1 bubble/second in distilled water at 26° C. (P=2.7 atm) and the calibration was made with double-distilled water and methanol. The surface tension of BA sodium salts solutions both in water and in NaCl 0.15 M was measured at various concentrations range, 0.2-75 mM and 0.3-100 mM respectively. The surface tension values were plotted against the logarithm of the bile salt concentration; the regression lines corresponding to the two parts of the curve (monomeric and micellar phases) were calculated using the method of least squares, and the intersection of the lines was taken as the CMC value.

Another data set concerns the target T2, bovine serum albumin (Bos taurus, UniProt P02769).
T2 construct: 5% bovine serum albumin-saline solution
In words: Albumin binding by equilibrium dialysis. Format: in vitro ADME. As to conditions: 100 μM BA in 5% bovine serum albumin-saline, 25° C.

For data set [4], the system named is Intestinal bacteria (human stools cultures). As to the kind of experiment: Metabolic stability in human stools culture (7α-dehydroxylation). Format: in vitro ADME.
Description: Homogenized fresh human stools (500 mg) were transferred into sterile vials to which 5 mL of sterilized chopped meat-glucose medium (Scott Lab., Fiskville, R.I.) was added. BA were then added at a final concentration of 0.05 mM. Vials were incubated at 37 C; then, at 0, 4, 8, 16, 20, 24, and 72 h after the addition of the BA, the reaction was stopped with 150 L of 30% KOH. The samples were centrifuged at 3500 rpm for 10 min; from the supernatant the BA were isolated by C-18 solid-phase extraction and analyzed by TLC and HPLC-ES-MS/MS. Thin-layer chromatography (TLC), utilizing silica gel 0.25 m thickness plates (Merck, Darmstat, Germany), was employed as the first screening test. The solvent system used for the separation of conjugated BA was composed of propionic acid/isoamyl acetate/water/N-propanol (3:4:1:2, v/v/v/v; solvent I), and that of the unconjugated BA was acetic acid/carbon tetrachloride/isopropyl ether/isoamyl acetate/water/N-propanol/benzene (1:4:6:8:2:2, v/v/v/v/v/v; solvent II).
In data set [5] the test system is pancreatic esterases (pancreatin). As to the kind of experiment: Metabolic stability in simulated duodenal/pancreatic fluid (USP). In kind it is in vitro ADME, porcine.
Description: Simulated pancreatic fluid was prepared by dissolving 10 g/L Pancreatin (Sigma P8096: pancreatin from porcine pancreas, activity 1×USP specifications) in 0.05M phosphate buffer, pH=7.2±0.1. […] After incubation, a 2-mL aliquot of each solution was added with 2 mL of 0.1M NaOH and subjected to bile acids extraction by SPE and analysis by thin-layer chromatography and mass spectrometry as described above.
Data set [6] is described as follows: Hepatic metabolism and biliary secretion in bile fistula rat after iv infusion. To be noted: for Main form / hepatic metabolite secreted in bile: at the administered dose. In kind it is in vivo. The procedure: The BA were administered by infusion to bile fistula rat and bile collected at 15 min intervals for 7 hours. The bile flow was measured and bile analyzed using HPLC-ES-MS-MS for the identification of the rate of biliary secretion and to evaluate the major hepatic metabolites.
Bile acids and their metabolites were determined by a liquid chromatography-tandem mass spectrometry (HPLC-MS/MS) method using electrospray (ESI) source in negative ionization mode. Rat bile samples were brought to room temperature and diluted 1:100 v/v-1:1000 v/v with 15 mM ammonium acetate buffer (pH=5). Then, 10 μL were injected into the chromatographic column. Liquid chromatography was performed using a Waters Alliance 2695 separation module coupled with autosampler. Bile acids were analyzed using a Synergi Hydro-RP C18 column (150×2.0 mm i.d., 4 μm particle size), protected by a SecurityGuard ODS 4×2.0 mm i.d. precolumn, both supplied from Phenomenex. Bile acids were separated in elution gradient using 15 mM ammonium acetate buffer (pH=5.00) as mobile phase A and acetonitrile as mobile phase B. Mobile phase B was increased from 30% to 64% in 12 min, then to 70% in 8 min, and finally brought to 100% in 10 min and held constant for 1 min. […] The column effluent was analysed by ESI-MS/MS using a Quattro-LC (Micromass) triple quadruple mass spectrometer operating in Multiple Reaction Monitoring (MRM) acquisition mode. MassLynx software version 4.0 was used for data acquisition and processing.

Data set [7] can be described thus: 1-Octanol/water partition coefficient, shake-flask. As to conditions: pH 8, 0.1 mM bile salt.
Description: (§1) 1-Octanol/water partition coefficient (log P) was evaluated using a conventional shake-flask procedure. […] The aqueous buffer was previously pre-saturated with 1-octanol, 5 ml of 1-octanol pre-saturated with water was then added and the samples were left to equilibrate for 2 weeks under continuous stirring at room temperature After centrifugation the two phases were carefully separated. BA concentration in the water phase was measured with HPLC-ESI-MS/MS using C18 column (150 mm×2 mm i.d., 4 μm) and mobile phases: A: water containing 15 mM acetic acid pH 5, B: acetonitrile. The flow rate was 150 μl/min and the column was maintained at 45° C. The mass spectrometry acquisition was performed in the multiple reaction monitoring mode using the ESI source in negative ionization.
Another data set is described as follows: Critical micellar pH. Format: physicochemical. To be noted: CMpH=pKa+log CMC/WS. The source says:
This value can be experimentally determined by evaluating the pH at which a given BA starts to precipitate from a micellar solution. It can be calculated from the CMC Water solubility of the protonated species and pKa using the formula: CMpH=pKa+log CMC/WS.

For data set [8] the following is noted: values from literature, cited from earlier work; for CMC NaCl 0.15M: in NaCl 0.15 M; for CMC H2O: in water.
For data set [9] the following is noted: value from literature; cited from earlier work.
The test system of data set [10] is ANIT-induced cholestasis. To be noted: previous unpublished studies by Fiorucci et al.; cited from earlier work.
Data set [11] is described as follows: Water solubility of protonated bile acids. As to conditions: 0.1 M HCl, pH 1, simulated gastric fluid, thermodynamic from solid.
Description: (§2) Solid BA were suspended in 5 ml of 0.1 M HCl. The saturated solutions, after incubation for 1 week, were filtered on a Millipore filter (0.22 μm) and the concentration of BA was measured by HPLC-ESI-MS/MS using C18 column (150 mm×2 mm i.d., 4 μm) and mobile phases of water containing 15 mM acetic acid pH 5 and acetonitrile. The flow rate was 150 μl/min. The mass spectrometry acquisition was performed in the multiple reaction monitoring mode using the ESI source in negative ionization. Water solubility was expressed as μmol/liter
The conditions of data set [12]: pH 8.
Description: as §1
The conditions of data set [13]: pH 1.
Description: as §2
[14] abbreviates: 5 mg/kg intraperitoneal, ammonium salt.

T2 sequence (P02769 25-607): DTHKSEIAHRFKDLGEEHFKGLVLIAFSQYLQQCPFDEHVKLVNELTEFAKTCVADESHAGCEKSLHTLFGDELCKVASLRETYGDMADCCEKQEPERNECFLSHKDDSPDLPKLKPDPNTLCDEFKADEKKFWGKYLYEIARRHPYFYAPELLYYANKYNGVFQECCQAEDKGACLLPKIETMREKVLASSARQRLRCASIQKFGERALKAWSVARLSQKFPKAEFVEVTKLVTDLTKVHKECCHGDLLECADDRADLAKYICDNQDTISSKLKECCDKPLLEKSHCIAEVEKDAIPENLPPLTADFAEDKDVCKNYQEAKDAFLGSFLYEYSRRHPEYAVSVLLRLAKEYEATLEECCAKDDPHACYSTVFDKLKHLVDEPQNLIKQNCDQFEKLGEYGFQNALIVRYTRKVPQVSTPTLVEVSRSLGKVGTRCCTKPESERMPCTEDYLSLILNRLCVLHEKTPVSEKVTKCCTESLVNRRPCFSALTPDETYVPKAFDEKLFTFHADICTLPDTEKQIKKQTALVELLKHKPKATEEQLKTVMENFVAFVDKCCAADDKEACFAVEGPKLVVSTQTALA
Description for bovine serum albumin: Albumin binding was evaluated by equilibrium dialysis at a fixed BA-albumin ratio. BA was dissolved at a concentration of 100 μM in 5% bovine serum albumin-saline solution and left to stand for 24 h at 25° C. Two ml of this solution was dialyzed in cellulose sacs having a molecular weight cut-off of 12-14,000 against 25 ml of saline solution. The system was equilibrated by mechanical shaking for 72 h at 25° C. BA concentrations of the dialyzed solution and of the starting solution were determined with HPLC-ESI-MS/MS in the same conditions of the previous analysis.

Regarding `CC[C@H]1[C@@H](O)C2C3CCC(C(C)CCOS(=O)(=O)O)[C@@]3(C)CCC2[C@@]2(C)CC[C@@H](O)C[C@@H]12` (stereo partly drawn) [UPF-987, 3α,7α,23-trihydroxy-6α-ethyl-24-nor-5β-cholan-23-sulphate triethyl ammonium salt], in [1] (setting [14]), the “Liver BSEP expression” value is “potent induction; also recorded: induces liver” and the “Liver SHP expression” value was “potent induction; also recorded: induces liver”. The “Downregulation of liver Cyp7a1” value in data set [1] (5 mg/kg) is 60-70%. Moreover, in data set [1] (5 mg/kg, ammonium salt), the “Liver FAS mRNA expression” value is given as “reduced”. Moreover, the inhibition at 5 mg/kg in [1] (Mus musculus, 96 h, read-out: Inhibition of liver SREBP-1c) came out at 90%. Further, in the data set with ANIT-induced cholestasis [2] (UPF-987 5 and 3 mg/kg daily), the “Liver injury / cholestasis (plasma AST, γGT, alkaline phosphatase, cholesterol)” value is “attenuates liver injury; also recorded: reduces ANIT”. Besides, in the data set on ANIT-induced cholestasis [2], the “Liver expression of NTCP, CYP7A1 and BSEP” value was “modulates liver”. Moreover, the “Transactivation of FXR” value on FXR is listed as “transactivates FXR”.

As for `CC[C@H]1[C@@H](O)C2C3CCC(C(C)CCOS(=O)(=O)[O-])[C@@]3(C)CCC2[C@@]2(C)CC[C@@H](O)C[C@@H]12.[Na+]` (stereo partly drawn) [INT-1103, 3α,7α,23-trihydroxy-6α-ethyl-24-nor-5β-cholan-23-sulphate sodium salt], in data set [3], the “ST50: Surface Tension of 50 mM aqueous solution” value (from here on “ST50: Surface Tension”) was determined as 43.3 Dyne/cm, the “STCMC: Surface Tension at CMC in water” value came to 47.9 Dyne/cm, the “CMC NaCl 0.15M” value is on record as 1.3 mM and the “CMC H2O” value is recorded as 3.9 mM. In addition, on bovine serum albumin, the “% Binding (albumin)” value came to 85%. Further, the “Stability in human stool cultures” value in [4] was “very stable”. Further, the “Stability in simulated pancreatic fluid” value in data set [5] (50 μM, 37° C., up to 240 min) is recorded as “very stable”. Also, the “Hydrolysis of ester bond (sulphate) by pancreatic esterases” value in data set [5] (simulated pancreatic fluid) is recorded as “not hydrolyzed”. The “Main form / hepatic metabolite secreted in bile” value in data set [6] is listed as 3-glucoronide. Also, the “Amount of administered dose secreted into bile” value in data set [6] (iv infusion 3 umol/Kg/min, bile collected 7 hours) is reported as 30-40%. Moreover, the “LogPA− (1-octanol-water partition coefficient, ionized species)” value (shortened to “LogPA−”) in [7] was found to be 2.0.

As to `C[C@H](CCC(=O)O)[C@H]1CC[C@H]2[C@@H]3[C@H](O)C[C@@H]4C[C@H](O)CC[C@]4(C)[C@H]3CC[C@]12C` [CDCA, chenodeoxycholic acid], in data set [3], the “ST50: Surface Tension” value is 48.5 Dyne/cm, the “STCMC: Surface Tension at CMC in water” value is 55.6 Dyne/cm, the “CMC NaCl 0.15M” value is reported as 3.0 mM and the “CMC H2O” value was 7.5 mM. For the same compound, the “% Binding (albumin)” value at bovine serum albumin was found to be 93%. For the same compound, the Half-life time entry in data set [4] (human stool cultures) is “one”. Besides, in [4] (human stool cultures, after 8 hours of incubation), the “Metabolism (7-dehydroxylation to lithocholic acid)” value was “almost completely metabolized”. For the same compound, the “CMpH (critical micellar pH)” value in “Critical micellar pH” was 7.6. In [7], the “LogPA−” value worked out at 2.2.

On to `C[C@H](CCC(=O)NCCS(=O)(=O)O)[C@H]1CC[C@H]2[C@@H]3[C@@H](O)C[C@@H]4C[C@H](O)CC[C@]4(C)[C@H]3CC[C@]12C` [TUDCA], for which, in data set [8], the “CMC NaCl 0.15M” value was 2.2* mM and the “CMC H2O” value is reported as 8.0* mM. Moreover, the “% Binding (albumin)” value at bovine serum albumin is 67%. The “LogPA−” value in data set [9] was 1.0*.

As to `C[C@H](CCC(=O)NCCS(=O)(=O)O)[C@H]1CC[C@H]2[C@@H]3[C@H](O)C[C@@H]4C[C@H](O)CC[C@]4(C)[C@H]3CC[C@]12C` [TCDCA], in data set [8], the “CMC NaCl 0.15M” value is recorded as 3.0* mM and the “CMC H2O” value is listed as 7.0* mM. Besides, the “LogPA−” value in data set [7] is recorded as 0.9.

Turning to `CC[C@H]1[C@@H](O)[C@@H]2[C@H](CC[C@]3(C)[C@@H]([C@H](C)CCC(=O)O)CC[C@@H]23)[C@@]2(C)CC[C@@H](O)C[C@@H]12` [INT-747, 3α,7α-dihydroxy-6α-ethyl-5β-cholan-24-oic acid], in [3], the “ST50: Surface Tension” value is recorded as 43.2 Dyne/cm, the “STCMC: Surface Tension at CMC in water” value is 48.8 Dyne/cm, the “CMC NaCl 0.15M” value is reported as 2.9 mM and the “CMC H2O” value is given as 4.5 mM. Also, the “Concentration at which a gel phase forms” value in [3] (in the presence of Na+ 0.15 M) is greater than 60000 µM. Further, the “% Binding (albumin)” value on bovine serum albumin was determined as 96%. The “Reduction of liver injury in ANIT model” value with ANIT-induced cholestasis [10] is reported as “not effective”. In [4], the “Stability in human stool cultures” value was “very stable”. Moreover, the “CMpH (critical micellar pH)” value in the data set “Critical micellar pH” amounted to 7.6. Further, the “CMpH (critical micellar pH)” value in the data set “Critical micellar pH” (listed as UPF 747) was determined as 7.7. In data set [11], this compound returned a solubility at 1 week of 9 µM (≈ 3.79 µg/mL). Further, the “Main form / hepatic metabolite secreted in bile” value in data set [6] is recorded as “taurine conjugate”. Besides, the “LogPA−” value in data set [7] stood at 2.5.

For `C[C@H](CCC(=O)O)[C@H]1CC[C@H]2[C@@H]3[C@@H](O)C[C@@H]4C[C@H](O)CC[C@]4(C)[C@H]3CC[C@]12C` [UDCA], the “LogPA−” value in [12] amounted to 2.2. For the same compound, in [3], the “ST50: Surface Tension” value is 50.4 Dyne/cm, the “STCMC: Surface Tension at CMC in water” value was 63.0 Dyne/cm, the “CMC NaCl 0.15M” value was 6.0 mM and the “CMC H2O” value was 26 mM. Also, the “% Binding (albumin)” value on bovine serum albumin is listed as 94%. Besides, the “Water Solubility” value in data set [13] was 7.5 µM. In addition, in the data set “Critical micellar pH”, the “CMpH (critical micellar pH)” value is reported as 8.4.
